Measured values: PubChem BioAssay (NCI)
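How tested: cells in 96-well plates exposed to compound for 48 hours at five concentrations. TGI marks complete inhibition of growth.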

Legend:
Assay in all cases: DTP human tumour cell line panel, 48 h
[1] = system: 786-0 renal
[2] = system: A549 NSCLC
[3] = system: ACHN renal
[4] = system: BT-549 breast
[5] = system: CAKI-1 renal
[6] = system: CCRF-CEM leukemia
[7] = system: COLO 205 colon
[8] = system: DU-145 prostate
[9] = system: EKVX NSCLC
[10] = system: HCC-2998 colon
[11] = system: HCT-116 colon
[12] = system: HCT-15 colon
[13] = system: HL-60(TB) leukemia
[14] = system: HOP-62 NSCLC
[15] = system: HS 578T breast
[16] = system: HT29 colon
[17] = system: IGROV1 ovarian
[18] = system: K-562 leukemia
[19] = system: KM12 colon
[20] = system: LOX IMVI melanoma
[21] = system: M14 melanoma
[22] = system: MALME-3M melanoma
[23] = system: MCF7 breast
[24] = system: MDA-MB-231 breast
[25] = system: MDA-MB-435
[26] = system: MDA-N
[27] = system: MOLT-4 leukemia
[28] = system: NCI-H226 lung
[29] = system: NCI-H23 lung
[30] = system: NCI-H460 lung
[31] = system: NCI-H522 lung
[32] = system: NCI/ADR-RES ovarian
[33] = system: OVCAR-3 ovarian
[34] = system: OVCAR-4 ovarian
[35] = system: OVCAR-5 ovarian
[36] = system: OVCAR-8 ovarian
[37] = system: PC-3 prostate
[38] = system: RXF 393 renal
[39] = system: SF-268 CNS
[40] = system: SF-295 CNS
[41] = system: SF-539 CNS
[42] = system: SK-MEL-2 melanoma
[43] = system: SK-MEL-28 melanoma
[44] = system: SK-MEL-5 melanoma
[45] = system: SK-OV-3 ovarian
[46] = system: SN12C renal
[47] = system: SNB-19 CNS
[48] = system: SNB-75 CNS
[49] = system: SR leukemia
[50] = system: SW-620 colon
[51] = system: T-47D breast
[52] = system: TK-10 renal
[53] = system: U251 CNS
[54] = system: UACC-257 melanoma
[55] = system: UACC-62 melanoma
[56] = system: UO-31 renal

COc1ccc(Cn2c(=O)c(OC)c(C)c3cc4ccccc4cc32)cc1
TGI [1]: > 100 µM | TGI [2]: > 100 µM | TGI [3]: > 100 µM | TGI [4]: > 100 µM | TGI [5]: > 100 µM | TGI [6]: > 100 µM | TGI [7]: 40.2 µM | TGI [8]: > 100 µM | TGI [9]: 60.3 µM | TGI [10]: 63.5 µM | TGI [11]: 43 µM | TGI [12]: > 100 µM | TGI [13]: 46 µM | TGI [14]: > 100 µM | TGI [15]: > 100 µM | TGI [16]: > 100 µM | TGI [17]: 57 µM | TGI [18]: > 100 µM | TGI [19]: > 100 µM | TGI [20]: 41.7 µM | TGI [21]: > 100 µM | TGI [22]: 72.7 µM | TGI [23]: > 100 µM | TGI [24]: > 100 µM | TGI [25]: > 100 µM | TGI [26]: > 100 µM | TGI [27]: 53 µM | TGI [28]: > 100 µM | TGI [29]: 77.5 µM | TGI [30]: 36.8 µM | TGI [31]: 59.6 µM | TGI [32]: 87.9 µM | TGI [33]: > 100 µM | TGI [34]: > 100 µM | TGI [35]: > 100 µM | TGI [36]: > 100 µM | TGI [37]: 49.2 µM | TGI [38]: > 100 µM | TGI [39]: > 100 µM | TGI [40]: > 100 µM | TGI [41]: > 100 µM | TGI [42]: 52.5 µM | TGI [43]: > 100 µM | TGI [44]: 22.2 µM | TGI [45]: > 100 µM | TGI [46]: 42.6 µM | TGI [47]: > 100 µM | TGI [48]: > 100 µM | TGI [49]: 57.5 µM | TGI [50]: > 100 µM | TGI [51]: > 100 µM | TGI [52]: 70.8 µM | TGI [53]: 80.6 µM | TGI [54]: 9.02 µM | TGI [55]: 69.9 µM | TGI [56]: > 100 µM
